Laboratory results published in patent publication US20160122320A1, “USEFUL COMBINATIONS OF MONOBACTAM ANTIBIOTICS WITH BETA-LACTAMASE INHIBITORS” (Basilea Pharmaceutica AG, priority 2005, published 2016).
Several values for one entry are separate records, joined by “and”; a condition that tells them apart may be missing. Equal entries are not always repeated.

Assays:
Assay in all cases: MIC, NCCLS broth microdilution
Assay type in all cases: cell-based
Settings in all cases: for MIC of antibiotic: antibiotic alone, no inhibitor
[1] = test system: Serratia marcescens S6
[2] = test system: Pseudomonas aeruginosa MK1184
[3] = test system: Acinetobacter sp. J2
[4] = test system: Pseudomonas aeruginosa 1973E
Experimental: Antimicrobial activity of the compounds and of their combinations was determined against a selection of organisms according to the standard procedures described by the National Committee for Clinical Laboratory Standards (National Committee for Clinical Laboratory. Standards (2000). Methods for Dilution Antimicrobial Susceptibility Tests for Bacteria That Grow Aerobically-Fifth Edition: Approved Standard M7-A5. NCCLS, Wayne, Pa., USA).
In all cases the final concentration of DMSO incubated with the bacteria is less than or equal to 1%. […] Plates were incubated overnight at an appropriate temperature (30° C. or 37° C.) and optical densities assessed by eye. The MIC value is defined as the lowest compound concentration completely inhibiting visible growth of the test organism. When combinations between compounds of formula I with compounds of formula II and are evaluated the compounds of formula I are tested in dilution series as described above while the compounds of formula II and III-XIII were present in all wells at a constant concentration of 4 μg/mL each.

[5] = test system: Klebsiella pneumoniae CF104
[6] = test system: Stenotrophomonas malthophilia 1AC736
[7] = test system: Enterobacter cloacae P99
[8] = with clavulanate (clavulanic acid)
[9] = Stenotrophomonas maltophilia 1AC736
[10] = Acinetobacter baumannii J2, with 206 and clavulanate
[11] = Stenotrophomonas maltophilia 1AC736, with 206 and clavulanate
[12] = Acinetobacter baumannii J2, with 102 and clavulanate
[13] = Stenotrophomonas maltophilia 1AC736, with 102 and clavulanate

SMILES | MIC of antibiotic [1] | MIC of antibiotic [2] | MIC of antibiotic ([3]; Acinetobacter baumannii J2) | MIC of antibiotic [4] | MIC of antibiotic [5] | MIC of antibiotic [6, 9] | MIC of antibiotic [7] | MIC of antibiotic at fixed inhibitor concentration of 4 mg/L ([1]; with 102 and clavulanate) | MIC of antibiotic at fixed inhibitor concentration of 4 mg/L ([2]; with 102 and clavulanate) | MIC of antibiotic at fixed inhibitor concentration of 4 mg/L [3, 12] | MIC of antibiotic at fixed inhibitor concentration of 4 mg/L ([4]; with 102 and clavulanate) | MIC of antibiotic at fixed inhibitor concentration of 4 mg/L ([5]; with 102 and clavulanate) | MIC of antibiotic at fixed inhibitor concentration of 4 mg/L [6, 13] | MIC of antibiotic at fixed inhibitor concentration of 4 mg/L ([7]; with 102 and clavulanate) | also measured
CC1(C)S[C@@H]2[C@H](NC(=O)[C@H](N)c3ccc(O)cc3)C(=O)N2[C@H]1C(=O)O [Amoxicillin, amoxicillin, reference compound] | – | – | – | – | – | – | – | – | – | – | – | – | – | – | MIC of antibiotic at fixed inhibitor concentration of 4 mg/L [1, 8]: >32 µg/mL; MIC of antibiotic at fixed inhibitor concentration of 4 mg/L [2, 8]: >32 µg/mL; MIC of antibiotic at fixed inhibitor concentration of 4 mg/L ([3]; Acinetobacter baumannii J2, with clavulanate (clavulanic acid)): >32 µg/mL; MIC of antibiotic at fixed inhibitor concentration of 4 mg/L [4, 8]: >32 µg/mL; MIC of antibiotic at fixed inhibitor concentration of 4 mg/L [5, 8]: 32 µg/mL; MIC of antibiotic at fixed inhibitor concentration of 4 mg/L ([6]; Stenotrophomonas maltophilia 1AC736, with clavulanate (clavulanic acid)): >32 µg/mL; MIC of antibiotic at fixed inhibitor concentration of 4 mg/L [7, 8]: >32 µg/mL
CC1(C)S[C@@H]2[C@H](NC(=O)[C@H](N)c3ccccc3)C(=O)N2[C@H]1C(=O)O [Ampicillin, ampicillin, reference compound] | – | – | – | – | – | – | – | – | – | – | – | – | – | – | MIC of antibiotic at fixed inhibitor concentration of 4 mg/L ([1]; with sulbactam): >32 µg/mL; MIC of antibiotic at fixed inhibitor concentration of 4 mg/L ([2]; with sulbactam): >32 µg/mL; MIC of antibiotic at fixed inhibitor concentration of 4 mg/L ([3]; Acinetobacter baumannii J2, with sulbactam): 32 µg/mL; MIC of antibiotic at fixed inhibitor concentration of 4 mg/L ([4]; with sulbactam): >32 µg/mL; MIC of antibiotic at fixed inhibitor concentration of 4 mg/L ([5]; with sulbactam): >32 µg/mL; MIC of antibiotic at fixed inhibitor concentration of 4 mg/L ([6]; Stenotrophomonas maltophilia 1AC736, with sulbactam): 32 µg/mL; MIC of antibiotic at fixed inhibitor concentration of 4 mg/L ([7]; with sulbactam): >32 µg/mL
CO/N=C(\C(=O)N[C@@H]1C(=O)N2C(C(=O)[O-])=C(C[N+]3(C)CCCC3)CS[C@H]12)c1csc(N)n1 [Cefepime] | 0.13 µg/mL and 0.125 µg/mL | 32 µg/mL | 32 µg/mL | 4 µg/mL | 4 µg/mL | 4 µg/mL | 2 µg/mL | – | – | – | – | – | – | – | MIC of antibiotic ([3]; Acinetobacter sp. J2): 32 µg/mL; MIC of antibiotic ([6]; Stenotrophomonas malthophilia 1AC736): 4 µg/mL
CC1C(NC(=O)C(=NOCc2cc(=O)c(O)cn2O)c2nsc(N)n2)C(=O)N1S(=O)(=O)O (centres unmarked) [Compound 2] | >32 µg/mL | 8 µg/mL | 4 µg/mL | 8 µg/mL | >32 µg/mL | 4 µg/mL | >32 µg/mL | – | – | – | – | – | – | – | MIC of antibiotic at fixed inhibitor concentration of 4 mg/L ([1]; with 206 and clavulanate): >32 µg/mL; MIC of antibiotic at fixed inhibitor concentration of 4 mg/L ([2]; with 206 and clavulanate): 16 µg/mL; MIC of antibiotic at fixed inhibitor concentration of 4 mg/L [3, 10]: 16 µg/mL; MIC of antibiotic at fixed inhibitor concentration of 4 mg/L ([4]; with 206 and clavulanate): 8 µg/mL; MIC of antibiotic at fixed inhibitor concentration of 4 mg/L ([5]; with 206 and clavulanate): 8 µg/mL; MIC of antibiotic at fixed inhibitor concentration of 4 mg/L [6, 11]: 0.5 µg/mL; MIC of antibiotic at fixed inhibitor concentration of 4 mg/L ([7]; with 206 and clavulanate): 16 µg/mL
COn1cc(O)c(=O)cc1CON=C(C(=O)N[C@@H]1C(=O)N(S(=O)(=O)O)[C@H]1C)c1csc(N)n1 [Compound 5, (3S,4S)-3-{2-(2-amino(1,3-thiazol-4-yl))-3-[(5-hydroxy-1-methoxy-4-oxo(2-hydropyridyl))methoxy]-3-azaprop-2-enoylamino}-4-methyl-2-oxoazetidinesulfonic acid] | 8 µg/mL | >32 µg/mL | >32 µg/mL | >32 µg/mL | >32 µg/mL | 16 µg/mL | 32 µg/mL | 1 µg/mL | >32 µg/mL | 32 µg/mL | >32 µg/mL | 8 µg/mL | 4 µg/mL | 8 µg/mL | –
C[C@H]1[C@H](NC(=O)/C(=N\OCc2cc(=O)c(O)cn2C)c2csc(N)n2)C(=O)N1S(=O)(=O)O [Compound 6, (3S,4S)-3-{(2Z)-2-(2-amino(1,3-thiazol-4-yl))-3-[(5-hydroxy-1-methyl-4-oxo(2-hydropyridyl))methoxy]-3-azaprop-2-enoylamino}-4-methyl-2-oxoazetidinesulfonic acid] | 4 µg/mL | >32 µg/mL | >32 µg/mL | >32 µg/mL | >32 µg/mL | 8 µg/mL | 16 µg/mL | 0.5 µg/mL | >32 µg/mL | >32 µg/mL | >32 µg/mL | <0.06 µg/mL | 4 µg/mL | 8 µg/mL | MIC of antibiotic at fixed inhibitor concentration of 4 mg/L ([1]; with 206 and clavulanate): 4 µg/mL; MIC of antibiotic at fixed inhibitor concentration of 4 mg/L ([1]; with 315 and clavulanate): 4 µg/mL; MIC of antibiotic at fixed inhibitor concentration of 4 mg/L ([2]; with 206 and clavulanate): >32 µg/mL; MIC of antibiotic at fixed inhibitor concentration of 4 mg/L ([2]; with 315 and clavulanate): >32 µg/mL; MIC of antibiotic at fixed inhibitor concentration of 4 mg/L [3, 10]: 32 µg/mL; MIC of antibiotic at fixed inhibitor concentration of 4 mg/L ([3]; Acinetobacter baumannii J2, with 315 and clavulanate): >32 µg/mL; MIC of antibiotic at fixed inhibitor concentration of 4 mg/L ([4]; with 206 and clavulanate): >32 µg/mL; MIC of antibiotic at fixed inhibitor concentration of 4 mg/L ([4]; with 315 and clavulanate): >32 µg/mL; MIC of antibiotic at fixed inhibitor concentration of 4 mg/L ([5]; with 206 and clavulanate): 0.5 µg/mL; MIC of antibiotic at fixed inhibitor concentration of 4 mg/L ([5]; with 315 and clavulanate): 0.5 µg/mL; MIC of antibiotic at fixed inhibitor concentration of 4 mg/L [6, 11]: 4 µg/mL; MIC of antibiotic at fixed inhibitor concentration of 4 mg/L ([6]; Stenotrophomonas maltophilia 1AC736, with 315 and clavulanate): 2 µg/mL; MIC of antibiotic at fixed inhibitor concentration of 4 mg/L ([7]; with 206 and clavulanate): 16 µg/mL; MIC of antibiotic at fixed inhibitor concentration of 4 mg/L ([7]; with 315 and clavulanate): 4 µg/mL
Nc1nc(C(=NOCc2cc(=O)c(O)cn2O)C(=O)NC2CN(S(=O)(=O)O)C2=O)cs1 (centres unmarked) [Compound 9] | 16 µg/mL | >32 µg/mL | >32 µg/mL | 8 µg/mL | >32 µg/mL | 0.5 µg/mL | >32 µg/mL | 1 µg/mL | 4 µg/mL | >32 µg/mL | 8 µg/mL | 0.5 µg/mL | 0.25 µg/mL | 32 µg/mL | –
CC1C(NC(=O)C(=NOCc2cc(=O)c(O)cn2O)c2noc(N)n2)C(=O)N1S(=O)(=O)O (centres unmarked) [Compound 16] | >32 µg/mL | >32 µg/mL | >32 µg/mL | >32 µg/mL | >32 µg/mL | >32 µg/mL | >32 µg/mL | >32 µg/mL | 16 µg/mL | 16 µg/mL | 16 µg/mL | 32 µg/mL | 2 µg/mL | >32 µg/mL | –
